According to patent publication US8956996B2, “Method for reducing nitrous oxide emission from soils” (BASF SE, priority 2009, dated 2015):

How the values were obtained:
N2O emission from soil [1] = experiment: Loss of nitrate and ammonium nitrogen in LiHof soil, pyraclostrobin and boscalid (Example 3); details: for Effect on N2O emission from soil (in words): LiHof soil, fertilizer applied 1 day after compound (A); for Loss of NO3-N + NH4-N in mg N/10 g soil in 48 h: soil type LiHof, pyraclostrobin 250 g/ha, boscalid 2.33 g/L, fertilizer 1 day after compound (A), UTC 0.52
N2O emission from soils [2] = experiment: N2O emission from potted corn after pyraclostrobin seed treatment, NPK fertilizer applied 10 days later (Example 1); assay type: in vivo, Zea mays
N2O emission from soil [3] = experiment: Loss of nitrate and ammonium nitrogen in soil samples, Conway method, as indirect measure of N2O produced (Example 2); details: for Loss of NO3-N + NH4-N in mg N/10 g soil in 48 h: fertilizer 1 day after compound (A)
N2O emission from soils [4] = experiment: Greenhouse trial: N2O emission from potted field soil planted with summer wheat (Example 4); assay type: in vivo; details: for Mean mg N2O-N/m^2: 4 weeks

Row | Compound | Effect on N2O emission from soil (in words) (N2O emission from soil [1]) | Loss of NO3-N + NH4-N in mg N/10 g soil in 48 h (N2O emission from soil [1]) [mg N/10 g soil] | N2O increase over ambient (N2O emission from soils [2]; seed treatment 5 g/100 kg seeds, 0.3% NPK fertilizer HaKaPhos Blue applied on day 10, peak value on day 2 of three day measurement, N = 14, UTC 190) [ppbv/h] | Effect on N2O emission from soils (in words) (N2O emission from soils [2]; seed treatment, fertilizer applied 10 days after compound (A)) | Loss of NO3-N + NH4-N in mg N/10 g soil in 48 h (N2O emission from soil [3]; soil type LiHof, UTC 0.54) [mg N/10 g soil] | Loss of NO3-N + NH4-N in mg N/10 g soil in 48 h (N2O emission from soil [3]; soil type Sp 2.1, UTC 0.16) [mg N/10 g soil] | Loss of NO3-N + NH4-N in mg N/10 g soil in 48 h (N2O emission from soil [3]; soil type Sp 2.2, UTC 0.19) [mg N/10 g soil] | Loss of NO3-N + NH4-N in mg N/10 g soil in 48 h (N2O emission from soil [3]; soil type Sp 2.3, UTC 0.38) [mg N/10 g soil] | Loss of NO3-N + NH4-N in mg N/10 g soil in 48 h (N2O emission from soil [3]; soil type Sp 2.4, UTC 0.37) [mg N/10 g soil] | Loss of NO3-N + NH4-N in mg N/10 g soil in 48 h (N2O emission from soil [3]; soil type Sp 5M, UTC 0.27) [mg N/10 g soil] | Loss of NO3-N + NH4-N in mg N/10 g soil in 48 h (N2O emission from soil [3]; soil type Sp 6S, UTC 0.48) [mg N/10 g soil] | Effect on N2O emission from soil (in words) (N2O emission from soil [3]; various types of soil, fertilizer applied 1 day after compound (A)) | Effect on N2O emission from soils (in words) (N2O emission from soils [4]; combined application of compound (A) and compound (B)) | Mean mg N2O-N/m^2 (N2O emission from soils [4]; pyraclostrobin 250 g/ha 8 days before the application of the fertilizer (ammonium nitrate 100 kg/ha)) [mg N2O-N/m^2] | Mean mg N2O-N/m^2 (N2O emission from soils [4]; pyraclostrobin 250 g/ha together with the application of the fertilizer (ammonium nitrate 100 kg/ha)) [mg N2O-N/m^2] | Effect on N2O emission from soils (in words) (N2O emission from soils [4]; pyraclostrobin and ammonium nitrate with time lag of 8 days, compared to fertilizer alone or joint application)
1 | O=C(Nc1ccccc1-c1ccc(Cl)cc1)c1cccnc1Cl [Boscalid, boscalid] | significantly reduced the N2O emission from soil | 0.35 |  |  |  |  |  |  |  |  |  |  |  |  |  | 
2 | COC(=O)N(OC)c1ccccc1COc1ccn(-c2ccc(Cl)cc2)n1 [Pyraclostrobin, pyraclostrobin] | significantly reduced the N2O emission from soil | 0.09 | 107 | significantly reduce the N2O emission from soils | 0.06 | 0.03 | 0.02 | 0.18 | 0.13 | 0.10 | 0.21 | significantly reduce the N2O emission from soil | does not result in a reduction of N2O emission from soils | 100.9 | 314.9 | significantly reduced
